In brackets after ≈: the same amount, converted by molar mass. Activity calls are given as the source filed them. The calls are words filed in the database; no cut-off is given here.
Tests used:
Escherichia coli [1] = experiment: Antibacterial activity against pET28a-NDM-1 positive Escherichia coli BL21(DE3) isolates assessed as spectinomycin MIC incubated for 18 to 24 hrs by CLSI based broth microdilution method; type: functional; conditions: time 18-24 hrs
Escherichia coli [2] = experiment: Antibacterial activity against pET28a-NDM-1 positive Escherichia coli BL21(DE3) isolates assessed as streptomycin MIC incubated for 18 to 24 hrs by CLSI based broth microdilution method; type: functional; conditions: time 18-24 hrs
Escherichia coli [3] = experiment: Antibacterial activity against NDM-1 negative Escherichia coli BL21(DE3) (pET28a) isolates assessed as meropenem MIC incubated for 18 to 24 hrs by CLSI based broth microdilution method; type: functional; conditions: time 18-24 hrs
Escherichia coli [4] = experiment: Synergistic antibacterial activity against pET28a NDM-1 positive Escherichia coli BL21(DE3) isolates assessed as fractional Inhibitory concentration index incubated for 18 to 24 hrs in presence of vancomycin by CLSI based broth microdilution method; type: functional; conditions: time 18-24 hrs
Escherichia coli [5] = experiment: Synergistic antibacterial activity against pET28a NDM-1 positive Escherichia coli BL21(DE3) isolates assessed as fractional Inhibitory concentration index incubated for 18 to 24 hrs in presence of doxycycline by CLSI based broth microdilution method; type: functional; conditions: time 18-24 hrs
Escherichia coli [6] = experiment: Synergistic antibacterial activity against pET28a NDM-1 positive Escherichia coli BL21(DE3) isolates assessed as fractional Inhibitory concentration index incubated for 18 to 24 hrs in presence of colistin by CLSI based broth microdilution method; type: functional; conditions: time 18-24 hrs
Escherichia coli [7] = experiment: Synergistic antibacterial activity against NDM-1 positive Escherichia coli ZC-YN3 isolates assessed as fractional Inhibitory concentration index incubated for 18 to 24 hrs in presence of meropenem by CLSI based broth microdilution method; type: functional; conditions: time 18-24 hrs
Escherichia coli [8] = experiment: Synergistic antibacterial activity against NDM-1 positive Escherichia coli ZC-YN3 isolates assessed as fractional Inhibitory concentration index incubated for 18 to 24 hrs in presence of ampicillin by CLSI based broth microdilution method; type: functional; conditions: time 18-24 hrs
Escherichia coli [9] = experiment: Synergistic antibacterial activity against NDM-1 positive Escherichia coli ZC-YN3 isolates assessed as fractional Inhibitory concentration index incubated for 18 to 24 hrs in presence of lincomycin by CLSI based broth microdilution method; type: functional; conditions: time 18-24 hrs
Escherichia coli [10] = experiment: Synergistic antibacterial activity against NDM-1 positive Escherichia coli ZC-YN3 isolates assessed as fractional Inhibitory concentration index incubated for 18 to 24 hrs in presence of rifampicin by CLSI based broth microdilution method; type: functional; conditions: time 18-24 hrs
[11] = Inhibition of metallo-beta-lactamase IMP-1 (unknown origin) using nitrocefin as substrate preincubated for 15 min followed by substrate addition and measured after 15 min by microplate reader assay; parameters: species or system Bacteria
[12] = Inhibition of metallo-beta-lactamase NDM-9 (unknown origin) using nitrocefin as substrate preincubated for 15 min followed by substrate addition and measured after 15 min by microplate reader assay; parameters: species or system Bacteria
Bacteria [13] = experiment: Binding affinity to NDM-1 (unknown origin) assessed as binding free energy by fluorescence quenching method
Bacteria [14] = experiment: Inhibition of NDM-1 M248A mutant activity (unknown origin) in presence of zinc ion
Bacteria [15] = test system: Bacteria
Description: Binding affinity to NDM-1 V73A mutant (unknown origin) assessed as binding constant by fluorescence quenching method

Question: What does the source list for `O=c1c(O)c(-c2ccc(O)c(O)c2)oc2cc(O)ccc12` [FISETIN]?
Answer: MIC (Escherichia coli [1]): 512 µg/mL; MIC (Escherichia coli [2]): 42.7 µg/mL; MIC (Escherichia coli [3]): 0.01 µg/mL; fractional inhibitory concentration index (FICI) (Escherichia coli [4]): 1.13; fractional inhibitory concentration index (FICI) (Escherichia coli [5]): 0.96; fractional inhibitory concentration index (FICI) (Escherichia coli [6]): 1.13; fractional inhibitory concentration index (FICI) (Escherichia coli [7]): 0.31; fractional inhibitory concentration index (FICI) (Escherichia coli [8]): 1.13; fractional inhibitory concentration index (FICI) (Escherichia coli [9]): 1.13; fractional inhibitory concentration index (FICI) (Escherichia coli [10]): 0.96; IC50 [11]: 56.13 µg/mL (≈ 196 µM); IC50 [12]: 25.98 µg/mL (≈ 90.8 µM); Activity (Bacteria [13]): -25 kcal/mol; inhibition (Bacteria [14]): Active; Ka (Bacteria [15]): 11.1 10^5L/mol
